Test results from ChEMBL document CHEMBL3045195, “Comparison of the activity of non-steroidal ecdysone agonists between dipteran and lepidopteran insects, using cell-based EcR reporter assays” (Pest Manag Sci, 2010).
Calls of active or inactive are those of the source. The rule behind the calls is not given here.

Columns and labels:
[1] = target: T1, Ecdysone receptor (Drosophila melanogaster) (UniProt P34021+P20153); assay: Agonist activity at ecdysone receptor in Drosophila melanogaster S2 cells at 10 uM after 24 hr by luciferase reporter gene assay relative to 20-hydroxyecdysone; format: cell-based
[2] = target: T2, Ecdysone receptor (Drosophila melanogaster, UniProt P20153+P34021); assay: (§1) Agonist activity at ecdysone receptor in Drosophila melanogaster S2 cells after 24 hr by luciferase reporter gene assay; format: cell-based
T2 sequence (P34021 whole entry): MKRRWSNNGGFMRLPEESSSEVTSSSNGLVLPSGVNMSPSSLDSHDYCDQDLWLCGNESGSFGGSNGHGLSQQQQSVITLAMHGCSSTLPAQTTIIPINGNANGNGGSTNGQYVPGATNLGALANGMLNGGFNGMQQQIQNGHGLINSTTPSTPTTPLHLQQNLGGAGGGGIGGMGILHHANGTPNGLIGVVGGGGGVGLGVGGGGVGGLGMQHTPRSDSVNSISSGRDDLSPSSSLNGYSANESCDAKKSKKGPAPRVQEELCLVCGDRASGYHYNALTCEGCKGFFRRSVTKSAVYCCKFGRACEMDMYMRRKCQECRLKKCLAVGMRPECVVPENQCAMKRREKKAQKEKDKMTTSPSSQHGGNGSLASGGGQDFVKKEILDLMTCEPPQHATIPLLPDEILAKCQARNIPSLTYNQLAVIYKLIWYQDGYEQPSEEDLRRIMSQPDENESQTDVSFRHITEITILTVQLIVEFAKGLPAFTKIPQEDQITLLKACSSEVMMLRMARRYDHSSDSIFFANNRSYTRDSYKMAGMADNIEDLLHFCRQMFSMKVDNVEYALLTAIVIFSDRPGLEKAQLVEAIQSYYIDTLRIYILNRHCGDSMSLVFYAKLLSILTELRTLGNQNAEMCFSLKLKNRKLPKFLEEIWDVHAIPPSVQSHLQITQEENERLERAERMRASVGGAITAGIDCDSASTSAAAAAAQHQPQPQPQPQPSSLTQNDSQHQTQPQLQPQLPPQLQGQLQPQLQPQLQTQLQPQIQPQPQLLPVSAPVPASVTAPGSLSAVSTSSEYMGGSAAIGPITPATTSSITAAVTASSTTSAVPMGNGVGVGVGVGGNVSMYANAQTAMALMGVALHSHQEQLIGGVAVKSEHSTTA
T2 sequence (P20153 whole entry): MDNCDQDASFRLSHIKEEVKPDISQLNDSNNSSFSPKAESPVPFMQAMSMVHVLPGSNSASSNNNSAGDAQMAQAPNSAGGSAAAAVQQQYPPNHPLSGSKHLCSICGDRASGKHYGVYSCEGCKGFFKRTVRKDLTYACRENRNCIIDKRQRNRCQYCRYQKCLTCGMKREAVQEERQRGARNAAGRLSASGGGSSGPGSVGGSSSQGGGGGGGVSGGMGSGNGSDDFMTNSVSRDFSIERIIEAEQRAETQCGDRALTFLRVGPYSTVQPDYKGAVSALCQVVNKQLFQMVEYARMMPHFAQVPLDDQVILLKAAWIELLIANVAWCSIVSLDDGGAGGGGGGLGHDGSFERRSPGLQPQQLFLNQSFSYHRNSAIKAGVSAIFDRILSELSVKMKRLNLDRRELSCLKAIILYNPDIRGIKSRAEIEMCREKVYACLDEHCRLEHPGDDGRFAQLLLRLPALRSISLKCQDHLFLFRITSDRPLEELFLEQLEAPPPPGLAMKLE

[3] = target: T3, Ecdysone receptor (Bombyx mori, UniProt P49881); assay: (§2) Agonist activity at ecdysone receptor in Bombyx mori Bm5 cells after 24 hr by luciferase reporter gene assay; format: cell-based
T3 sequence (P49881 whole entry): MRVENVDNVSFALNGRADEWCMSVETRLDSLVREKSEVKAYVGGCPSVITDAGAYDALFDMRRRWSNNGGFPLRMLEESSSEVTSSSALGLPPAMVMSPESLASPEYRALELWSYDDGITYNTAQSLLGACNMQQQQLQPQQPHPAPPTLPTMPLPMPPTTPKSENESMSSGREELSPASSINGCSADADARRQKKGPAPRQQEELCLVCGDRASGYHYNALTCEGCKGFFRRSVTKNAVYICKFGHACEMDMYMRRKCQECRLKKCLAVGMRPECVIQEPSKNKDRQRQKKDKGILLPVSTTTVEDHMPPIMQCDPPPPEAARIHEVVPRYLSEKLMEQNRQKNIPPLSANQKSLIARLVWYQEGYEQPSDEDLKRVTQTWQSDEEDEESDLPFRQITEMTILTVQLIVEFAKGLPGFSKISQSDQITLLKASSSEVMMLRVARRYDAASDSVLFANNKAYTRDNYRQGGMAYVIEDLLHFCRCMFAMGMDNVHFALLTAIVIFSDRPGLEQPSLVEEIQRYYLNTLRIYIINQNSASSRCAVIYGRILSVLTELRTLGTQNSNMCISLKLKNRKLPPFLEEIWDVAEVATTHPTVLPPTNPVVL

[4] = target: T2, Ecdysone receptor; assay: Agonist activity at ecdysone receptor in Drosophila melanogaster B2 cells assessed as reduction in cell density
[5] = Cytotoxicity against Drosophila melanogaster S2 cells at 10 to 100 uM after 24 hr by CellTiter assay; format: cell-based; conditions: s2, 24 h
[6] = target: T1, Ecdysone receptor (Drosophila melanogaster); assay: Agonist activity at ecdysone receptor in Drosophila melanogaster S2 cells at 100 uM after 24 hr by luciferase reporter gene assay relative to 20-hydroxyecdysone; format: cell-based
[7] = target: T1, Ecdysone receptor (Drosophila melanogaster); assay: as §1; format: cell-based
[8] = target: T4, Ecdysone receptor (Bombyx mori) (UniProt P49881); assay: as §2; format: cell-based
T4 sequence (whole entry): T3 sequence (P49881 whole entry)

[9] = target: T2, Ecdysone receptor; assay: Agonist activity at ecdysone receptor in Drosophila melanogaster Kc cells after 24 hr by luciferase reporter gene assay

Row | SMILES | Efficacy [1] | EC50 [2] | EC50 [3] | EC50 [4] | Activity [5] | Efficacy [6] | pEC50 [7] | pEC50 [8] | EC50 [9]
1 | CCCc1ccc(C(=O)NN(C(=O)c2ccccc2Cl)C(C)(C)C)cc1 | 52% | 9.77 µM | 0.00912 µM | – | – | – | – | – | –
2 | Cc1ccc(C(=O)NN(C(=O)c2cc(C)cc(C)c2)C(C)(C)C)cc1 | 46% | 11.2 µM | 0.012 µM | – | – | – | – | – | –
3 | CCc1ccc(C(=O)NN(C(=O)c2cc(C)cc(C)c2)C(C)(C)C)cc1 [TEBUFENOZIDE] | 52% | 6.61 µM | 0.00123 µM | 0.525 µM | Non-toxic | – | – | – | –
4 | CC(C)(C)N(NC(=O)c1ccccc1)C(=O)c1ccccc1I | – | 91.2 µM | 0.105 µM | 1.2 µM | – | 52% | – | – | –
5 | CCc1ccc(C(=O)NC2(C(=O)c3cc(C)cc(C)c3)CCCCC2)cc1 | 4% | > 10 µM | – | – | – | – | – | – | –
6 | CC(C)(C)N(NC(=O)c1ccccc1)C(=O)c1ccccc1[N+](=O)[O-] | – | 15.5 µM | 0.224 µM | 1.1 µM | – | 86% | – | – | –
7 | CC1CCc2ccccc2N1C(=O)c1ccc(Cl)cc1 (stereo not given) | – | – | – | – | – | – | inactive | inactive | –
8 | CC(C)(C)N(NC(=O)c1cccc(Cl)c1)C(=O)c1ccccc1Cl | – | 16.6 µM | 0.155 µM | 1.2 µM | – | 80% | – | – | –
9 | CC(C)(C)N(NC(=O)c1ccc(-c2ccccc2)cc1)C(=O)c1ccccc1Cl | – | – | – | – | – | – | – | – | > 100 µM
10 | Cc1cc(C)cc(C(=O)N(NC(=O)c2ccc(Cl)cc2)C(C)(C)C)c1 | 42% | 16.6 µM | 0.0191 µM | – | – | – | – | – | –
11 | Cc1ccc(C(=O)NN(C(=O)c2ccccc2Cl)C(C)(C)C)cc1 | – | 3.24 µM | 0.0186 µM | 0.219 µM | – | 79% | – | – | –
12 | Cc1ccc(NC2CC(C)N(C(=O)c3ccc(C(C)(C)C)cc3)c3ccc(C)cc32)cc1 (stereo not given) | – | – | – | – | – | – | inactive | inactive | –
13 | CC(C)(C)N(NC(=O)c1ccccc1)C(=O)c1ccccc1F | – | 72.4 µM | 0.309 µM | 6.17 µM | – | 62% | – | – | –
14 | COc1ccccc1C(=O)N(NC(=O)c1ccccc1)C(C)(C)C | – | 120 µM | 0.525 µM | 3.8 µM | – | 44% | – | – | –
